This assay has as its target T1, human PAH with the R408W mutation (Homo sapiens, UniProt P00439, R408W).
T1 construct: expressed in transfected cells
T1 sequence (P00439 1-452 R408W): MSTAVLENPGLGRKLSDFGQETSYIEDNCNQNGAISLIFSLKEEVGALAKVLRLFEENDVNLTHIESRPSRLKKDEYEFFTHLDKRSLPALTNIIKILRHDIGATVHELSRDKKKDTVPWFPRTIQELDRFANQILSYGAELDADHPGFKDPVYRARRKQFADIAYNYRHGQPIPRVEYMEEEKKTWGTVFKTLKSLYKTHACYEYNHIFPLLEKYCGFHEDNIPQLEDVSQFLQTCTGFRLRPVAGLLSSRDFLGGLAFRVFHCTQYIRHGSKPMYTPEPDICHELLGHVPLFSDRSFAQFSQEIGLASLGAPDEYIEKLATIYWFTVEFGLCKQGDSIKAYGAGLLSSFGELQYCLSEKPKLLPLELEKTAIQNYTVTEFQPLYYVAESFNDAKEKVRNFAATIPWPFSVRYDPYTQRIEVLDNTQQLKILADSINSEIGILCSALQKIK
The assay is described as follows: Cell Based Phenylalanine Flux Assay. The following applies: A375 cells expressing human R408W PAH, 13C-Tyrosine by LC-MS, average where tested multiple times, read-out: AC50.

Counter-ions that a name gives are not always drawn. Like-named read-outs stand apart in the source and are kept apart here.

Consider 31 compounds from patent publication US20250171438A1 (Agios Pharmaceuticals, Inc., priority 2022, published 2025).

The term AC50 denotes the concentration giving half of the maximal activity seen. As to `O=C(c1cc2cccnn2c1)N1CCc2[nH]cnc2[C@H]1c1nc2ccccc2[nH]1` [(S)-(4-(1H-benzo[d]imidazol-2-yl)-1,4,6,7-tetrahydro-5H-imidazo[4,5-c]pyridin-5-yl)(pyrrolo[1,2-b]pyridazin-6-yl)methanone], the half-maximal activity concentration (AC50) (24 hrs with compound) is greater than 5000 nM. Consider `O=C(c1cscn1)N1CCc2[nH]cnc2[C@H]1c1nc2ccccc2[nH]1` [(S)-(4-(1H-benzo[d]imidazol-2-yl)-1,4,6,7-tetrahydro-5H-imidazo[4,5-c]pyridin-5-yl)(thiazol-4-yl)methanone], for which, for the setting “24 hrs with compound”, the AC50 was in the range of 1000 to 5000 nM.

Regarding `Cn1cc(-c2ncc(C(=O)N3CCc4[nH]cnc4[C@H]3c3nc4ccccc4[nH]3)o2)cn1` [(S)-(4-(1H-benzo[d]imidazol-2-yl)-6,7-dihydro-1H-imidazo[4,5-c]pyridin-5(4H)-yl)(2-(1-methyl-1H-pyrazol-4-yl)oxazol-5-yl)methanone hydrochloride], the concentration at half-maximal activity (AC50) (24 hrs with compound) is greater than 5000 nM. Regarding `Cn1cc(-c2ncc(C(=O)N3CCc4[nH]cnc4[C@H]3c3nc4ccccc4[nH]3)s2)cn1` [(S)-(4-(1H-benzo[d]imidazol-2-yl)-6,7-dihydro-1H-imidazo[4,5-c]pyridin-5(4H)-yl)(2-(1-methyl-1H-pyrazol-4-yl)thiazol-5-yl)methanone], the AC50 (24 hrs with compound) is greater than 5000 nM. As to `Cc1nc(C(C)(C)O)oc1C(=O)N1CCc2[nH]cnc2[C@H]1c1nc2ccccc2[nH]1` [(S)-(4-(1H-benzo[d]imidazol-2-yl)-6,7-dihydro-1H-imidazo[4,5-c]pyridin-5(4H)-yl)(2-(2-hydroxypropan-2-yl)-4-methyloxazol-5-yl)methanone], under “24 hrs with compound”, the concentration at half-maximal activity (AC50) is greater than 5000 nM.

`CC(C)(O)c1ncc(C(=O)N2CCc3[nH]cnc3[C@H]2c2nc3ccccc3[nH]2)o1` [(S)-(4-(1H-benzo[d]imidazol-2-yl)-6,7-dihydro-1H-imidazo[4,5-c]pyridin-5(4H)-yl)(2-(2-hydroxypropan-2-yl)oxazol-5-yl)methanone]: the concentration at half-maximal activity (AC50) (24 hrs with compound) was greater than 5000 nM.

For the compound `O=C(c1cnc(-c2ccccn2)o1)N1CCc2[nH]cnc2[C@H]1c1nc2ccccc2[nH]1` [(S)-(4-(1H-benzo[d]imidazol-2-yl)-6,7-dihydro-1H-imidazo[4,5-c]pyridin-5(4H)-yl)(2-(pyridin-2-yl)oxazol-5-yl)methanone], the AC50 (24 hrs with compound) fell in the range of 1000 to 5000 nM. In the case of `CC(C)(O)c1nc(C2CC2)c(C(=O)N2CCc3[nH]cnc3[C@H]2c2nc3ccccc3[nH]2)o1` [(S)-(4-(1H-benzo[d]imidazol-2-yl)-6,7-dihydro-1H-imidazo[4,5-c]pyridin-5(4H)-yl)(4-cyclopropyl-2-(2-hydroxypropan-2-yl)oxazol-5-yl)methanone], the AC50 (24 hrs with compound) is 1000 to 5000 nM.

Take `O=C(c1cnn2ccc(Cl)cc12)N1CCc2[nH]cnc2[C@H]1c1nc2ccccc2[nH]1` [(S)-(4-(1H-benzo[d]imidazol-2-yl)-6,7-dihydro-1H-imidazo[4,5-c]pyridin-5(4H)-yl)(5-chloropyrazolo[1,5-a]pyridin-3-yl)methanone]: the half-maximal activity concentration (AC50) (24 hrs with compound) lay in the range of 1000 to 5000 nM. Still for that read-out and setting: the same measure for `O=C(c1nc2cc(F)ccc2s1)N1CCc2[nH]cnc2[C@H]1c1nc2ccccc2[nH]1` [(S)-(4-(1H-benzo[d]imidazol-2-yl)-6,7-dihydro-1H-imidazo[4,5-c]pyridin-5(4H)-yl)(5-fluorobenzo[d]thiazol-2-yl)methanone]: 1000 to 5000 nM; for `COc1ccn2ncc(C(=O)N3CCc4[nH]cnc4[C@H]3c3nc4ccccc4[nH]3)c2c1` [(S)-(4-(1H-benzo[d]imidazol-2-yl)-6,7-dihydro-1H-imidazo[4,5-c]pyridin-5(4H)-yl)(5-methoxypyrazolo[1,5-a]pyridin-3-yl)methanone]: 1000 to 5000 nM. As for `Cc1ccn2ncc(C(=O)N3CCc4[nH]cnc4[C@H]3c3nc4ccccc4[nH]3)c2c1` [(S)-(4-(1H-benzo[d]imidazol-2-yl)-6,7-dihydro-1H-imidazo[4,5-c]pyridin-5(4H)-yl)(5-methylpyrazolo[1,5-a]pyridin-3-yl)methanone], the AC50 (24 hrs with compound) lay in the range of 1000 to 5000 nM. Turning to `O=C(c1nc2ccc(F)cc2s1)N1CCc2[nH]cnc2[C@H]1c1nc2ccccc2[nH]1` [(S)-(4-(1H-benzo[d]imidazol-2-yl)-6,7-dihydro-1H-imidazo[4,5-c]pyridin-5(4H)-yl)(6-fluorobenzo[d]thiazol-2-yl)methanone], where the note is “24 hrs with compound”, the concentration at half-maximal activity (AC50) was 1000 to 5000 nM. Turning to `COc1ccc2c(C(=O)N3CCc4[nH]cnc4[C@H]3c3nc4ccccc4[nH]3)cnn2c1` [(S)-(4-(1H-benzo[d]imidazol-2-yl)-6,7-dihydro-1H-imidazo[4,5-c]pyridin-5(4H)-yl)(6-methoxypyrazolo[1,5-a]pyridin-3-yl)methanone], the AC50 (24 hrs with compound) lay within 1000 to 5000 nM. On to `Cc1ccc2c(C(=O)N3CCc4[nH]cnc4[C@H]3c3nc4ccccc4[nH]3)cnn2c1` [(S)-(4-(1H-benzo[d]imidazol-2-yl)-6,7-dihydro-1H-imidazo[4,5-c]pyridin-5(4H)-yl)(6-methylpyrazolo[1,5-a]pyridin-3-yl)methanone], for which the AC50 (24 hrs with compound) fell in the range of 1000 to 5000 nM. Take `O=C(C1CCC1)N1CCc2[nH]cnc2[C@H]1c1nc2ccccc2[nH]1` [(S)-(4-(1H-benzo[d]imidazol-2-yl)-6,7-dihydro-1H-imidazo[4,5-c]pyridin-5(4H)-yl)(cyclobutyl)methanone]: under “24 hrs with compound”, the AC50 lay in the range of 1000 to 5000 nM. Still for that read-out and setting: the same measure for `O=C(c1ccno1)N1CCc2[nH]cnc2[C@H]1c1nc2ccccc2[nH]1` [(S)-(4-(1H-benzo[d]imidazol-2-yl)-6,7-dihydro-1H-imidazo[4,5-c]pyridin-5(4H)-yl)(isoxazol-5-yl)methanone]: 1000 to 5000 nM; for `O=C(c1cocn1)N1CCc2[nH]cnc2[C@H]1c1nc2ccccc2[nH]1` [(S)-(4-(1H-benzo[d]imidazol-2-yl)-6,7-dihydro-1H-imidazo[4,5-c]pyridin-5(4H)-yl)(oxazol-4-yl)methanone]: 1000 to 5000 nM; for `O=C(c1cc2ccccn2n1)N1CCc2[nH]cnc2[C@H]1c1nc2ccccc2[nH]1` [(S)-(4-(1H-benzo[d]imidazol-2-yl)-6,7-dihydro-1H-imidazo[4,5-c]pyridin-5(4H)-yl)(pyrazolo[1,5-a]pyridin-2-yl)methanone]: greater than 5000 nM. For the compound `O=C(CCc1nccs1)N1CCc2[nH]cnc2[C@H]1c1nc2ccccc2[nH]1` [Example 900, (S)-1-(4-(1H-benzo[d]imidazol-2-yl)-6,7-dihydro-1H-imidazo[4,5-c]pyridin-5(4H)-yl)-3-(thiazol-2-yl)propan-1-one], the AC50 (24 hrs compound incubation) lay in the range of 500 to 1000 nM. For `O=C(CCc1nccs1)N1CCc2[nH]cnc2[C@@H]1c1nc2ccccc2[nH]1` [Example 901, (R)-1-(4-(1H-benzo[d]imidazol-2-yl)-6,7-dihydro-1H-imidazo[4,5-c]pyridin-5(4H)-yl)-3-(thiazol-2-yl)propan-1-one], where the note is “24 hrs compound incubation”, the concentration at half-maximal activity (AC50) was greater than 5000 nM. On the same count and under the same terms, the same measure for `O=C(c1nccs1)N1CCc2[nH]cnc2[C@@H]1c1nc2ccccc2[nH]1` [Example 902, (R)-(4-(1H-benzo[d]imidazol-2-yl)-6,7-dihydro-1H-imidazo[4,5-c]pyridin-5(4H)-yl)(thiazol-2-yl)methanone]: greater than 5000 nM. As for `O=C(c1nccs1)N1CCc2[nH]cnc2[C@H]1c1nc2ccccc2[nH]1` [Example 903, (S)-(4-(1H-benzo[d]imidazol-2-yl)-6,7-dihydro-1H-imidazo[4,5-c]pyridin-5(4H)-yl)(thiazol-2-yl)methanone], for the setting “24 hrs compound incubation”, the AC50 is 500 to 1000 nM.

For `O=C(Cc1nc2ccccc2s1)N1CCc2[nH]cnc2[C@H]1c1nc2ccccc2[nH]1` [Example 905], the AC50 (24 hrs compound incubation) lay in the range of 1000 to 5000 nM.

On to `CC(C)(C)CCC(=O)N1CCc2[nH]cnc2[C@@H]1c1nc2ccccc2[nH]1` [Example 906, (R)-1-(4-(1H-benzo[d]imidazol-2-yl)-6,7-dihydro-1H-imidazo[4,5-c]pyridin-5(4H)-yl)-4,4-dimethylpentan-1-one], for which, under “24 hrs compound incubation”, the half-maximal activity concentration (AC50) was 1000 to 5000 nM. For the compound `CC(C)(C)CCC(=O)N1CCc2[nH]cnc2[C@H]1c1nc2ccccc2[nH]1` [Example 907, (S)-1-(4-(1H-benzo[d]imidazol-2-yl)-6,7-dihydro-1H-imidazo[4,5-c]pyridin-5(4H)-yl)-4,4-dimethylpentan-1-one], the concentration at half-maximal activity (AC50) (24 hrs compound incubation) was less than 500 nM. With `O=C(CCc1nccs1)N1CCc2[nH]cnc2[C@H]1c1nc2ccc(Br)cc2[nH]1` [Example 908, (S)-1-(4-(6-bromo-1H-benzo[d]imidazol-2-yl)-6,7-dihydro-1H-imidazo[4,5-c]pyridin-5(4H)-yl)-3-(thiazol-2-yl)propan-1-one], the half-maximal activity concentration (AC50) (24 hrs compound incubation) was less than 500 nM. On to `O=C(CCc1nccs1)N1CCc2[nH]cnc2[C@@H]1c1nc2ccc(Br)cc2[nH]1` [Example 909, (R)-1-(4-(6-bromo-1H-benzo[d]imidazol-2-yl)-6,7-dihydro-1H-imidazo[4,5-c]pyridin-5(4H)-yl)-3-(thiazol-2-yl)propan-1-one], for which the AC50 (24 hrs compound incubation) was greater than 5000 nM. For `O=C(CCc1nccs1)N1CCc2[nH]cnc2[C@H]1c1nc2ccc(Cl)cc2[nH]1` [Example 910, (S)-1-(4-(6-chloro-1H-benzo[d]imidazol-2-yl)-6,7-dihydro-1H-imidazo[4,5-c]pyridin-5(4H)-yl)-3-(thiazol-2-yl)propan-1-one], the AC50 (24 hrs compound incubation) lay in the range of 500 to 1000 nM. Still for that read-out and setting: in the case of `O=C(CCC1CCCC1)N1CCc2[nH]cnc2[C@@H]1c1nc2ccccc2[nH]1` [Example 912, (R)-1-(4-(1H-benzo[d]imidazol-2-yl)-6,7-dihydro-1H-imidazo[4,5-c]pyridin-5(4H)-yl)-3-cyclopentylpropan-1-one] it was greater than 5000 nM. As to `O=C(CCC1CCCC1)N1CCc2[nH]cnc2[C@H]1c1nc2ccccc2[nH]1` [Example 913, (S)-1-(4-(1H-benzo[d]imidazol-2-yl)-6,7-dihydro-1H-imidazo[4,5-c]pyridin-5(4H)-yl)-3-cyclopentylpropan-1-one], the AC50 (24 hrs compound incubation) was in the range of 500 to 1000 nM.
